The subject of the test is mouse myoblasts (C2C12) myotubes. The test can be described thus: C2C12 myotube atrophy induced by C26 cell culture medium (HE staining, myotube diameter). It is filed as cell-based. The conditions noted are these: C26 medium-induced C2C12 myotubes; for Myotube atrophy reversal rate (%): 48 h. The source says:
Carbamo(dithioperoxo)thioate analogs alleviate mouse myoblasts (C2C12) atrophy induced by mouse colon cancer cell (C26).
The diameter measurement method was used to evaluate the diameter of myotubes differentiated from mouse myoblasts (C2C12). The staining method used in the experiment was hematoxylin-eosin staining, referred to as HE staining. The hematoxylin stain is alkaline, positively charged, and easily binds to negatively charged and acidic deoxyribonucleic acid (DNA) in the nucleus with ionic bonding to show blue; while eosin is an acidic dye that dissociates into negatively charged anions in water and easily binds to the positively charged amino groups of proteins in the cytoplasm to show red. The stained cells were placed under a high-magnification microscope to take photos (magnification power: 400), and the diameter of myotubes could be counted using image J software.
The above method allows to evaluate the effect of the drug on the muscle atrophy cell model. The specific method is as follows.
C2C12 cells were seeded in 24-well plates in a culture medium of high-glucose DMEM medium containing 10% FBS and 1% P/S, and placed in a 5% CO2, 37° C. environment. When the cell density reaches 50%˜60%, the culture medium was changed into 2% HS differentiation medium (high-glucose DMEM medium containing 2% HS and 1% P/S); the differentiation medium was changed every 48 h until mature on day 5 or day 6. In addition, C26 cells were inoculated in T75 flasks, and the culture medium was changed into high-glucose DMEM medium containing 10% FBS and 1% P/S, and placed in a 5% CO2, 37° C. environment. While C26 cells (6×10^6 cells/flasks) were passaged, add 20 mL of culture medium to sequentially subculture for 48 h. To obtain the C26 supernatant, centrifuge C26 culture medium at 1000 rpm for 3 min and then at 4000 rpm for 10 min successively. The C26 supermatant and 2% HS differentiation medium were mixed 1:1 (volume ratio) as a muscle atrophy inducing medium. Except for the control group with 2% HS differentiation medium, other each group was added with the equal amounts of muscle atrophy-inducing medium and one group was used as the model group, and the rest groups were used as the experimental groups for drug administration. At the same time, carbamo(dithioperoxo)thioate compounds were added into the cells at the following gradient concentrations.
Wherein, the serial numbers correspond to the numbers of the accompanying figures, that is, FIG. 1-46 correspond to the samples of serial numbers 1-46 in Table 1. μM refers to μmol/L.
Myotube diameter was measured as follows.
After 48 h of action, the myotubes were fixed with fixative solution (anhydrous ethanol:formaldehyde:glacial acetic acid volume ratio=20:2:1) for more than 1 h, stained using hematoxylin-eosin staining method, and placed under a high-magnification microscope to acquire images and counted the diameter of myotubes using image J. The muscle atrophy reversal rate was calculated according to the following equation. Muscle atrophy reversal rate=(Average value of myotubes in drug administration group−Average value of myotubes in model group)/(Average value of myotubes in control group−Average value of myotubes in model group)×100%

For `CCCCCCCCCCSSC(=S)N1CCCC1` [Compound 2], the “Myotube atrophy reversal rate (%)” value is 16.94% (12.5 μM), 43.90% (25 μM) (25 μM) and 61.05% (50 μM) (50 μM).

As for `CCCCCCCCCCCCSSC(=S)N1CCc2ccccc21` [Compound 10], the “Myotube atrophy reversal rate (%)” value (25 μM) amounted to 10.82%, the “Myotube atrophy reversal rate (%)” value (50 μM) worked out at 25.32% and the “Myotube atrophy reversal rate (%)” value (l00 μM) turned out to be 45.93%.

Turning to `CCCCCCCCCCCCSSC(=S)N1CC2CCCCC2C1` (stereo not drawn) [Compound 12], the “Myotube atrophy reversal rate (%)” value runs as follows: (25 μM) 20.85%; (50 μM) 49.43%; (l00 μM) 66.73%.

For `CCCCCCCCCCCCSSC(=S)N1CCC1` [Compound 17], the “Myotube atrophy reversal rate (%)” value (25 μM) is on record as 26.34% and the “Myotube atrophy reversal rate (%)” value (50 μM) amounted to 53.97%.

As to `CCCCCCCCSSC(=S)N1CCCC1` [Compound 1], the “Myotube atrophy reversal rate (%)” value (25 μM) worked out at 18.39%, the “Myotube atrophy reversal rate (%)” value (50 μM) stood at 2.51% and the “Myotube atrophy reversal rate (%)” value (l00 μM) is 36.26%.

As for `CCCCCCCCCCCCSSC(=S)N1CCOCC1` [Compound 15], the “Myotube atrophy reversal rate (%)” value runs as follows: (25 μM) 26.47%; (50 μM) 48.24%.

`CCCCCCCCCCCCSSC(=S)N1CCC2(COC2)C1` [Compound 11]: the “Myotube atrophy reversal rate (%)” value was determined as 42.30% (25 μM) and 64.65% (50 μM).

Take `CCCCCCCCCCCSSC(=S)N1CCCC1` [Compound 3]: the “Myotube atrophy reversal rate (%)” value by setting is: (25 μM) 35.76%; (50 μM) 33.40%; (l00 μM) 46.11%.

For the molecule `CCCCCCCCCCCCCCCCSSC(=S)N1CCCC1` [Compound 7], the “Myotube atrophy reversal rate (%)” value (25 μM) came to 41.05%, the “Myotube atrophy reversal rate (%)” value (50 μM) was 28.79% and the “Myotube atrophy reversal rate (%)” value (l00 μM) turned out to be 43.99%.

On to `CCCCCCCCCCCCCCSSC(=S)N1CCCC1` [Compound 6], for which the “Myotube atrophy reversal rate (%)” value (25 μM) was found to be 20.41%, the “Myotube atrophy reversal rate (%)” value (50 μM) was determined as 35.98% and the “Myotube atrophy reversal rate (%)” value (l00 μM) stood at 33.80%.

With `CCCCCCCCCCCCCCCCCCSSC(=S)N1CCCC1` [Compound 8], the “reversal of myotube atrophy (activity in words)” value is recorded as “lower”. Where the note is “25 μM”, the “Myotube atrophy reversal rate (%)” value is −1.83%. In addition, for the setting “50 μM”, the “Myotube atrophy reversal rate (%)” value was found to be 17.41%. Besides, the “Myotube atrophy reversal rate (%)” value (l00 μM) is listed as 6.10%.

Regarding `CCCCCCCCCCCCSSC(=S)N1CCC(O)C1` (stereo not drawn) [Compound 13], the “Myotube atrophy reversal rate (%)” value amounted to 18.05% (25 μM) and 42.38% (50 μM).

For the molecule `CCCCCCCCCCCCSSC(=S)N1Cc2ccccc2C1` [Compound 9], the “Myotube atrophy reversal rate (%)” value is, setting by setting: (25 μM) 12.22%; (50 μM) 29.24%; (l00 μM) 60.06%.

With `CCCCCCCCCCCCSSC(=S)N1CCN(C)CC1` [Compound 16], the “Myotube atrophy reversal rate (%)” value reads like this: (25 μM) 31.39%; (50 μM) 46.75%.

For `CCCCCCCCCCCCCSSC(=S)N1CCCC1` [Compound 5], the “Myotube atrophy reversal rate (%)” value (25 μM) is reported as 23.27% and the “Myotube atrophy reversal rate (%)” value (50 μM) turned out to be 40.28%.

For `CCCCCCCCCCCCSSC(=S)N1CCCCC1` [Compound 14], the “Myotube atrophy reversal rate (%)” value (25 μM) is 17.02% and the “Myotube atrophy reversal rate (%)” value (50 μM) is given as 43.19%.

The values above are taken from US12269808B2, “Amino dithioperacid thioester compound, preparation method therefor, and use thereof” (FUDAN UNIVERSITY, priority 2019, dated 2025).
